Assay results taken from the NIST ThermoML archive (doi:10.1007/s10765-007-0223-x).

Assay: xn = mol fraction of the nth substance listed
Conditions: 101 kPa, Liquid; for speed of sound: Single path-length method

COC(C)(C)C [2-methoxy-2-methylpropane] + CC(C)(C)O
Conditions | mass density [kg/m3] | speed of sound [m/s]
301.65 K, x1 = 0.049 | 775.452 | 1105.4
301.65 K, x1 = 0.1 | 772.914 | 1100.7
301.65 K, x1 = 0.215 | 767.025 | 1089.3
301.65 K, x1 = 0.314 | 761.986 | 1079.7
301.65 K, x1 = 0.4 | 757.94 | 1072
301.65 K, x1 = 0.498 | 753.459 | 1063.6
301.65 K, x1 = 0.597 | 749.177 | 1055.5
301.65 K, x1 = 0.707 | 744.495 | 1047.6
301.65 K, x1 = 0.799 | 740.646 | 1040.8
301.65 K, x1 = 0.9 | 736.522 | 1033.1
301.65 K, x1 = 0.951 | 734.553 | 1028.8
301.65 K, x1 = 1 | 732.643 | 1024.3
303.15 K, x1 = 0.049 | 772.916 | 1094.7
303.15 K, x1 = 0.1 | 770.395 | 1090.2
303.15 K, x1 = 0.215 | 764.529 | 1079.1
303.15 K, x1 = 0.314 | 759.479 | 1069.7
303.15 K, x1 = 0.4 | 755.424 | 1061.9
303.15 K, x1 = 0.498 | 750.928 | 1053.1
303.15 K, x1 = 0.597 | 746.615 | 1045
303.15 K, x1 = 0.707 | 741.905 | 1036.7
303.15 K, x1 = 0.799 | 738.033 | 1029.9
303.15 K, x1 = 0.9 | 733.889 | 1021.9
303.15 K, x1 = 0.951 | 731.913 | 1017.6
303.15 K, x1 = 1 | 729.99 | 1012.8
305.65 K, x1 = 0.049 | 770.344 | 1084
305.65 K, x1 = 0.1 | 767.841 | 1079.7
305.65 K, x1 = 0.215 | 762.002 | 1068.7
305.65 K, x1 = 0.314 | 756.946 | 1059.4
305.65 K, x1 = 0.4 | 752.889 | 1051.7
305.65 K, x1 = 0.498 | 748.373 | 1042.6
305.65 K, x1 = 0.597 | 744.023 | 1034.3
305.65 K, x1 = 0.707 | 739.304 | 1025.9
305.65 K, x1 = 0.799 | 735.393 | 1018.7
305.65 K, x1 = 0.9 | 731.231 | 1010.6
305.65 K, x1 = 0.951 | 729.253 | 1006.3
305.65 K, x1 = 1 | 727.325 | 1001.4
308.15 K, x1 = 0.049 | 767.747 | 1073.2
308.15 K, x1 = 0.1 | 765.265 | 1069.1
308.15 K, x1 = 0.215 | 759.448 | 1058.2
308.15 K, x1 = 0.314 | 754.398 | 1049.1
308.15 K, x1 = 0.4 | 750.325 | 1041.2
308.15 K, x1 = 0.498 | 745.794 | 1032
308.15 K, x1 = 0.597 | 741.414 | 1023.5
308.15 K, x1 = 0.707 | 736.686 | 1015.2
308.15 K, x1 = 0.799 | 732.737 | 1007.6
308.15 K, x1 = 0.9 | 728.559 | 999.39
308.15 K, x1 = 0.951 | 726.577 | 994.94
308.15 K, x1 = 1 | 724.645 | 989.9
310.65 K, x1 = 0.049 | 765.13 | 1062.6
310.65 K, x1 = 0.1 | 762.685 | 1058.9
310.65 K, x1 = 0.215 | 756.88 | 1047.9
310.65 K, x1 = 0.314 | 751.817 | 1038.6
310.65 K, x1 = 0.4 | 747.731 | 1030.6
310.65 K, x1 = 0.498 | 743.186 | 1021.4
310.65 K, x1 = 0.597 | 738.784 | 1012.8
310.65 K, x1 = 0.707 | 734.036 | 1004.3
310.65 K, x1 = 0.799 | 730.062 | 996.52
310.65 K, x1 = 0.9 | 725.873 | 988.12
310.65 K, x1 = 0.951 | 723.884 | 983.57
310.65 K, x1 = 1 | 721.953 | 978.47
313.15 K, x1 = 0.049 | 762.492 | 1052
313.15 K, x1 = 0.1 | 760.064 | 1048.4
313.15 K, x1 = 0.215 | 754.27 | 1037.4
313.15 K, x1 = 0.314 | 749.212 | 1028.2
313.15 K, x1 = 0.4 | 745.126 | 1020.2
313.15 K, x1 = 0.498 | 740.567 | 1010.9
313.15 K, x1 = 0.597 | 736.13 | 1002
313.15 K, x1 = 0.707 | 731.36 | 993.34
313.15 K, x1 = 0.799 | 727.372 | 985.44
313.15 K, x1 = 0.9 | 723.168 | 976.81
313.15 K, x1 = 0.951 | 721.205 | 972.48
313.15 K, x1 = 1 | 719.245 | 967.03
315.65 K, x1 = 0.049 | 759.831 | 1041.5
315.65 K, x1 = 0.1 | 757.407 | 1037.8
315.65 K, x1 = 0.215 | 751.633 | 1026.8
315.65 K, x1 = 0.314 | 746.577 | 1017.7
315.65 K, x1 = 0.4 | 742.483 | 1009.7
315.65 K, x1 = 0.498 | 737.91 | 1000.2
315.65 K, x1 = 0.597 | 733.459 | 991.47
315.65 K, x1 = 0.707 | 728.662 | 982.37
315.65 K, x1 = 0.799 | 724.66 | 974.33
315.65 K, x1 = 0.9 | 720.449 | 965.56
315.65 K, x1 = 0.951 | 718.495 | 961.27
315.65 K, x1 = 1 | 716.525 | 955.73
318.15 K, x1 = 0.049 | 757.138 | 1031
318.15 K, x1 = 0.1 | 754.729 | 1027.3
318.15 K, x1 = 0.215 | 748.972 | 1016.3
318.15 K, x1 = 0.314 | 743.917 | 1007.1
318.15 K, x1 = 0.4 | 739.814 | 999.06
318.15 K, x1 = 0.498 | 735.227 | 989.54
318.15 K, x1 = 0.597 | 730.762 | 980.67
318.15 K, x1 = 0.707 | 725.943 | 971.38
318.15 K, x1 = 0.799 | 721.933 | 963.24
318.15 K, x1 = 0.9 | 717.738 | 954.55
318.15 K, x1 = 0.951 | 715.752 | 949.91
318.15 K, x1 = 1 | 713.786 | 944.34
320.65 K, x1 = 0.049 | 754.421 | 1020.5
320.65 K, x1 = 0.1 | 752.024 | 1016.8
320.65 K, x1 = 0.215 | 746.283 | 1005.9
320.65 K, x1 = 0.314 | 741.23 | 996.62
320.65 K, x1 = 0.4 | 737.119 | 988.47
320.65 K, x1 = 0.498 | 732.517 | 978.82
320.65 K, x1 = 0.597 | 728.042 | 969.8
320.65 K, x1 = 0.707 | 723.201 | 960.4
320.65 K, x1 = 0.799 | 719.199 | 952.31
320.65 K, x1 = 0.9 | 714.978 | 943.3
320.65 K, x1 = 0.951 | 712.991 | 938.58
320.65 K, x1 = 1 | 711.028 | 933.01
323.15 K, x1 = 0.049 | 751.68 | 1010
323.15 K, x1 = 0.1 | 749.295 | 1006.3
323.15 K, x1 = 0.215 | 743.567 | 995.37
323.15 K, x1 = 0.314 | 738.52 | 986.19
323.15 K, x1 = 0.4 | 734.4 | 977.86
323.15 K, x1 = 0.498 | 729.786 | 968.08
323.15 K, x1 = 0.597 | 725.316 | 958.97
323.15 K, x1 = 0.707 | 720.436 | 949.42
323.15 K, x1 = 0.799 | 716.426 | 941.22
323.15 K, x1 = 0.9 | 712.195 | 931.99
323.15 K, x1 = 0.951 | 710.215 | 927.25
323.15 K, x1 = 1 | 708.28 | 921.93
